19 compounds from patent publication US5686424A, “2-oxoethyl derivatives as immunosuppressants” (Miles Inc., priority 1995, dated 1997) can be followed below.

Assay [1] concerns human T-cells. The experiment in a line: Suppression of Human T-Cell Proliferation Assay (PHA-stimulated, [3H]-thymidine incorporation). Format: cell-based. The following applies: read-out: IC50. An excerpt: 2) Human T Lymphocyte Inhibition
Inhibition of mitogen-induced T-cell proliferation can be used to profile immunosuppressive activity of test compounds. In the description of the assay which follows, mitogen-induced T-cell activation was used to test the inhibitory potencies of select compounds of the present invention.
In an assay similar to that described by Bradley in Mishell et al. (Eds.), 1980, Selected Methods in Cellular Immunology, pp 156-161, W. H. Freeman & Co., San Fransisco, Calif., T-cells were stimulated by incubation with phytohemagglutinin (PHA) which binds to cell surface molecules, including the T-cell receptor. This stimulation results in proliferation which can be measured by incorporation of [^3 H]-thymidine into cellular DNA.
The immunosuppressive properties of the compounds of the present invention can be determined by adding various concentrations of the compounds to these cultures and measuring the effect on T-cell proliferation.
Suppression of Human T-Cell Proliferation Assay
Fresh LeukoPaks were obtained from the New York Blood Center, New York, N.Y. The cells, including erythrocytes and leukocytes, were diluted with Hank's Balanced Salt Solution (HBSS) (GIBCO, Grand Island, N.Y.) and layered over Lymphoprep (Nycomed Pharma AS, Oslo, Norway) in sterile 50 ml conical centrifuge tubes. Lymphocytes were isolated at the Hank's/Nycomed interface after centrifugation at 2000×g, 4° C. for 15 min. The lymphocytes were washed with Minimal Essential Medium (GIBCO) containing 2% fetal bovine serum (FBS) (Sigma Chemical Co., St. Louis, Mo.), 1% HEPES buffer (GIBCO) and 1% Penicillin-Stretomycin solution (GIBCO).
T-cells were further purified essentially by sheep erythrocyte (SRBC) rosetting as described by Morimoto et al., 1983, J. Immunol. 130:157. The isolated lymphocytes were adjusted to 2×10^7 cells/ml and 5 ml aliquots of the cell suspension were incubated for 10 minutes at room temperature with 5 ml of a 5% SRBC (Cappel, Organon Technika Corp., West Chester, Pa.) suspension. The cells were gently pelleted by centrifugation at 300 rpm for 10 minutes, followed by a 1 hour incubation at room temperature to allow rosette formation. The cells were gently resuspended,layered over Lymphoprep and centrifuged for 30 minutes at 500×g. The pellet, containing rosetted T-cells and SRBC was treated with ice cold buffered ammonium chloride (GIBCO) to lyse the erythrocytes. T-cells were washed twice with HBSS.
Purified T-cells were resuspended at 2×10^6 cells/ml in complete culture medium composed of RPMI-1640 (Whittaker Bioproducts, Walkerville, Md.) with 10% FBS (Sigma), 2 mM L-glutamine (GIBCO), 1% Penicillin-Streptomycin (GIBCO) and 15 mM HEPES (GIBCO). In 96-well plates (Becton Dickinson, Lincoln Park, N.J.), 0.1 ml aliquots of T-cell suspension were mixed with 0.05 ml of 40 μg/ml PHA-M (Sigma). The compounds of this invention were dissolved in dimethylsulfoxide at 10 mM and various dilutions in complete medium were added in duplicate wells (0.05 ml/well). The plates were incubated at 37° C. in a humidified atmosphere of 5% carbon dioxide and 95% air for 72 hours.
Proliferation was assessed by measurement of [^3 H]-thymidine incorporation. During the last 6 hours of incubation, the cells were pulse labelled with 1 μCi/well of [^3 H]-thymidine (New England Nuclear, Boston, Mass.). The cells were harvested onto glass fiber paper using a plate harvester and the radioactivity incorporated into cellular DNA corresponding to individual wells was measured by standard liquid scintillation counting methods.
For orientation: Dividing cells build labelled thymidine or BrdU into new DNA.

In assay [2] the target is FKBP (Homo sapiens, UniProt P62942). The experiment in a line: PPIase Inhibition Assay. Format: biochemical. How it is done: 1) Inhibition of PPIase Activity
This assay follows in principle the procedure described in Kofron et al., 1991, Biochemistry 30:6127.
The three main reagents used are PPIase, a substrate for PPIase, and a selected inhibitor compound of the present invention. The basic principle behind this assay is the conversion of the cis isomer of the substrate to the trans form, which conversion is catalyzed by PPIase. Essentially, inhibition of this PPIase activity is measured for the selected compounds. A peptide chymotrypsin substrate containing a proline in the P2 position is only cleaved by chymotrypsin when the Phe-Pro bond is in the trans isomeric configuration. In the presence of excess chymotrypsin, all of the trans peptide isomers are cleaved within approximately five seconds, leaving only cis forms.
The cis peptide will spontaneously convert to the trans isomer at a slow rate. The cis to trans conversion is catalyzed by isomerases at a much faster rate than this spontaneous conversion. Proteins with PPIase activity are examples of such isomerases. After isomerization, the peptide is cleaved by chymotrypsin releasing p-nitroaniline which can be monitored at 390 nm. The rate of release is then calculated using a first order rate plus offset equation utilizing the ENZFITTER program (Leatherbarrow, BIOSOFT, Cambridge, United Kingdom).
In a plastic cuvette are added 950 ul of ice cold assay buffer (25 mM HEPES, pH 7.8, 100 mM NaCl), 10 uL of FKBP (2.5 uM in 10 mM Tris-Cl pH 7.5, 100 mM NaCl, 1 mM dithiothreitol), 25 ul of chymotrypsin (50 mg/ml in 1 mM HCl) and 10 ul of the test compound at various concentrations in dimethyl sulphoxide. The reaction is initiated by addition of 5 ul of substrate (Succinyl-Ala-Phe-Pro-Phe-para-nitroanilide, 5 mg/ml in 235 mM LiCl in trifluoroethanol).
The absorbance at 390 nm versus time is monitored for 90 sec using a Beckman DU70 spectrophotometer. The absorbance versus time data files are transferred to an IBM XT computer and the rate constants determined using the commercial enzfitter program. For each set of data, the uncatalyzed rate of conversion is measured and the uninhibited enzymatic rate determined. The data are expressed as % Activity remaining and are calculated as follows:
% Activity Remaining=(kobs -kuncat)/(kuninh
where kobs is the rate in the presence of a selected test compound, kuncat is the rate in the absence of enzyme, and kuninh is the rate in the presence of enzyme
Data was plotted as the velocity in the absence of the inhibitor (V-) divided by the velocity in the presence of inhibitor (V+) versus the inhibitor concentration. The IC50 can be determined following linear regression as the inhibitor concentration where

Where [3] appears, read: concentration inhibiting [3H]-thymidine incorporation of PHA-stimulated T-cells by 50%, 72 hours, TABLE 2.
The mark [4] stands for this setting: concentration of inhibitor required for 50% inhibition of enzyme activity, FKBP, substrate Succinyl-Ala-Phe-Pro-Phe-para-nitroanilide, TABLE I.

Like-named read-outs stand apart in the source and are kept apart here. Bounds are passed on as bounds.

Sequence of FKBP (P62942 whole entry): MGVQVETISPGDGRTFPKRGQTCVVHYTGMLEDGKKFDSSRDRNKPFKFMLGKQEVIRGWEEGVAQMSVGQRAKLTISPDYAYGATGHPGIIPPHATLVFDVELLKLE

One may read the IC50 as the concentration needed to halve the response being measured. Regarding `CC[C@H](C)[C@@H](C(=O)NCc1ccccc1)N(C)C(=O)[C@@H]1CCCN1CC(=O)c1ccccc1` [Example 16, L-Isoleucine, N-Methyl-N-[1-(2-Phenyl-2-Oxoethyl)-L-Prolyl] Benzylamide], the half-maximal inhibitory concentration (IC50) in assay [1] (setting [3]) and in assay [2] (setting [4]) was > 50 µM each time.

For the compound `CC[C@H](C)[C@H](NC(=O)[C@@H]1CCCCN1CC(=O)c1ccccc1)C(=O)NCc1ccccc1` [Example 17, L-Isoleucine, N-[1-(2-Phenyl-2-Oxoethyl)-L-Homoproline] Benzylamide], the half-maximal inhibitory concentration (IC50) is > 50 µM in assay [1] (setting [3]) and < 50 µM in assay [2] (setting [4]).

In the case of `O=C(CN1CCC[C@H]1C(=O)N[C@H](C(=O)NCc1ccccc1)c1ccccc1)c1ccccc1` [Example 18], the IC50 was 6 µM in assay [1] (setting [3]) and < 50 µM in assay [2] (setting [4]).

On to `CC[C@H](C)[C@H](NC(=O)[C@@H]1CCCN1C(C)C(=O)c1ccccc1)C(=O)NCc1ccccc1` (stereo partly drawn) [Example 19, L-Isoleucine, N-[1-(1-Methyl-2-Phenyl-2-Oxoethyl)-L-Prolyl] Benzylamide], for which the IC50 in assay [1] (setting [3]) was 18 µM; in assay [2] (setting [4]), < 50 µM.

As to `CC[C@H](C)[C@H](NC(=O)[C@@H]1CCCN1CC(=O)c1cccc(OC)c1)C(=O)NCc1ccccc1` [Example 20, L-Isoleucine, N-[1-(2-(3-Methoxyphenyl)-2-Oxoethyl)-L-Prolyl] Benzylamide], the IC50 in assay [1] (setting [3]) was < 11 µM; in assay [2] (setting [4]) it was < 50 µM.

Take `CC[C@H](C)[C@H](NC(=O)[C@@H]1CCCN1CC(=O)c1ccc(O)c(O)c1)C(=O)NCc1ccccc1` [Example 21, L-Isoleucine, N-[1-(2-(3,4-Dihydroxyphenyl)-2-Oxoethyl)-L-Prolyl] Benzylamide]: the figures for the IC50 in assay [1] (setting [3]) and in assay [2] (setting [4]) were 34 µM and < 50 µM, respectively.

For the compound `CC[C@H](C)[C@@H](C(=O)NCc1ccccc1)N(C)C(=O)[C@@H]1CCCN1CC(=O)OCc1ccccc1` [Example 22, L-Isoleucine, N-Methyl-N-[1-(2-Benzyloxy-2-Oxoethyl)-L-Prolyl] Benzylamide], the figures for the 50% inhibitory concentration (IC50) in assay [1] (setting [3]) and in assay [2] (setting [4]) were 42 µM and > 50 µM, respectively.

On to `CC[C@H](C)[C@H](NC(=O)[C@@H]1CCCCN1CC(=O)OCc1ccccc1)C(=O)NCc1ccccc1` [Example 23], for which the IC50 in assay [1] (setting [3]) is 62 µM; in assay [2] (setting [4]), < 50 µM.

On to `CC[C@H](C)[C@H](NC(=O)[C@@H]1CCCN1CC(=O)C(C)(C)C)C(=O)NCc1ccccc1` [Example 26, L-Isoleucine, N-[1-(2-tert-Butyl-2-Oxoethyl)-L-Proline] Benzylamlde], for which the IC50 in assay [1] (setting [3]) was 58 µM; in assay [2] (setting [4]), < 50 µM.

In the case of `CC[C@H](C)[C@H](NC(=O)[C@@H]1CCCN1CC(=O)c1cc(OC)ccc1OC)C(=O)NCc1ccccc1` [Example 27, L-Isoleucine, N-[1-(2-(2,5-Dimethoxyphenyl)-2-Oxoethyl)-L-Prolyl] Benzylamide], the results for the IC50 in assay [1] (setting [3]) and in assay [2] (setting [4]) were 20 µM and 12 µM, respectively.

Turning to `CC[C@H](C)[C@H](NC(=O)[C@@H]1CCCN1CC(=O)c1cccc(OCc2ccccc2)c1)C(=O)NCc1ccccc1` [Example 31, L-Isoleucine, N-[1-(2-(3-Benzyloxyphenyl)-2-Oxoethyl)-L-Prolyl] Benzylamlde], the IC50 in assay [1] (setting [3]) was 32 µM; in assay [2] (setting [4]), < 5 µM.

`CC[C@H](C)[C@H](NC(=O)[C@@H]1CCCN1CC(=O)c1ccc(C)cc1C)C(=O)NCc1ccccc1` [Example 32, L-Isoleucine, N-[1-(2-(2,4-Dimethylphenyl)-2-Oxoethyl)-L-Prolyl] Benzylamide]: the IC50 in assay [1] (setting [3]) is 41 µM; in assay [2] (setting [4]) it was < 5 µM.

Take `CC[C@H](C)[C@H](NC(=O)[C@@H]1CCCN1CC(=O)c1ccc(F)cc1)C(=O)NCc1ccccc1` [Example 33, L-Isoleucine, N-[1-(2-(4-Fluorophenyl)-2-Oxoethyl)-L-Prolyl] Benzylamide]: the IC50 in assay [1] (setting [3]) came to 42 µM; in assay [2] (setting [4]), 5 µM.

As to `CC[C@H](C)[C@H](NC(=O)[C@@H]1CCCN1CC(=O)c1ccc(Br)cc1)C(=O)NCc1ccccc1` [Example 34, L-Isoleucine, N-[1-(2-(4-Bromophenyl)-2-Oxoethyl)-L-Prolyl] Benzylamide], the values for the IC50 in assay [1] (setting [3]) and in assay [2] (setting [4]) were 40 µM and < 5 µM, respectively.

On to `CC[C@H](C)[C@H](NC(=O)[C@@H]1CCCN1CC(=O)Nc1ccc(Cl)cc1Cl)C(=O)NCc1ccccc1` [Example 35, L-Isoleucine, N-[1-(2,4-Dichlorophenylcarbamoylmethyl)-L-Proline] Benzylamide], for which the IC50 is 43 µM in assay [1] (setting [3]) and > 5 µM in assay [2] (setting [4]).

Regarding `CC[C@H](C)[C@H](NC(=O)[C@@H]1CCCN1CC(=O)c1ccc(-c2ccccc2)cc1)C(=O)NC(C)(C)C` [Example 52, L-Isoleucine, N-[1-(2-(Biphenyl-4-yl)-2-Oxoethyl)-L-Prolyl] tert-Butylamide], the figures for the IC50 in assay [1] and in assay [2] were > 50 µM and < 50 µM, respectively.

As to `O=C(CN1CCC[C@H]1C(=O)N[C@@H](Cc1ccccc1)C(=O)NCc1ccccc1)c1ccc(-c2ccccc2)cc1` [Example 53, L-Phenylalanine, N-[1-(2-(Biphenyl-4-yl)-2-Oxoethyl)-L-Prolyl] Benzylamide], the IC50 in assay [1] was 16 µM; in assay [2] it was > 50 µM.

For `CC[C@H](C)[C@H](NC(=O)[C@@H]1CCCN1CC(=O)O)C(=O)NCc1ccccc1` [Example 71, L-Isoleucine, N-[1-(Carboxymethyl)-L-Prolyl] Benzylamide], the IC50 was > 50 µM in assay [1] (setting [3]) and > 5 µM in assay [2] (setting [4]).

Consider `CC[C@H](C)[C@H](NC(=O)[C@@H]1CCCN1CC(=O)N1CCC2(CC1)OCCO2)C(=O)NCc1ccccc1` [Example 73, L-Isoleucine, N-[1-(2-(1,4-Dioxa-8-aza-spiro[4.5]dec-8-yl)-2-Oxoethyl)-L-Prolyl] Benzylamide], for which the IC50 in assay [1] (setting [3]) was > 50 µM; in assay [2] (setting [4]), < 5 µM.
